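Test compounds were applied to cells in 96-well plates for 48 hours at 5 doses. GI50 is the concentration that inhibits growth by half.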 Activity calls are given as the source filed them. Rule as the data show it: active = GI50 up to about 1.1 µM and inactive = higher.
Tests used:
Experiment in all cases: DTP human tumour cell line panel, 48 h
SK-MEL-2 = tested on: SK-MEL-2
SNB-19 = tested on: SNB-19
CAKI-1 = tested on: CAKI-1
TK-10 = tested on: TK-10
UO-31 = tested on: UO-31
KM12 = tested on: KM12
HT-29 = tested on: HT-29
SF-268 = tested on: SF-268
SNB-75 = tested on: SNB-75
HL-60 = tested on: HL-60
HOP-62 = tested on: HOP-62
SK-MEL-5 = tested on: SK-MEL-5
M14 = tested on: M14
A549 = tested on: A549
A498 = tested on: A498
HCT-116 = tested on: HCT-116
HOP-92 = tested on: HOP-92
SR = tested on: SR
Hs-578T = tested on: Hs-578T

Row | Structure (SMILES) | GI50 (SK-MEL-2) | GI50 (SNB-19) | GI50 (CAKI-1) | GI50 (TK-10) | GI50 (UO-31) | GI50 (KM12) | GI50 (HT-29) | GI50 (SF-268) | GI50 (SNB-75) | GI50 (HL-60) | GI50 (HOP-62) | GI50 (SK-MEL-5) | GI50 (M14) | GI50 (A549) | GI50 (A498) | GI50 (HCT-116) | GI50 (HOP-92) | GI50 (SR) | GI50 (Hs-578T)
1 | COC(OC)c1cccc2c1C(=O)CCC1(CC2)OCCCCO1 | > 100 µM (inactive) | > 100 µM (inactive) | > 100 µM (inactive) | > 100 µM (inactive) | > 100 µM (inactive) | > 100 µM (inactive) | > 100 µM (inactive) | > 100 µM (inactive) | > 100 µM (inactive) | > 100 µM (inactive) | > 100 µM (inactive) | > 100 µM (inactive) | > 100 µM (inactive) | > 100 µM (inactive) | > 100 µM (inactive) | > 100 µM (inactive) | – | – | –
2 | O=C1NC(=O)C2C(=O)NC(=O)C1C2c1c(Cl)cccc1Cl (configuration not stated) | > 100 µM (inactive) | > 100 µM (inactive) | > 100 µM (inactive) | > 100 µM (inactive) | > 100 µM (inactive) | > 69.2 µM (inactive) | > 92.5 µM (inactive) | > 51.1 µM (inactive) | > 63.5 µM (inactive) | > 44.4 µM (inactive) | > 100 µM (inactive) | > 100 µM (inactive) | > 100 µM (inactive) | > 72.4 µM (inactive) | > 100 µM (inactive) | > 42.6 µM (inactive) | > 100 µM (inactive) | > 100 µM (inactive) | –
3 | N#Cc1nc(C(O)c2ccccc2)oc1N (configuration not stated) | > 100 µM (inactive) | > 100 µM (inactive) | > 100 µM (inactive) | > 100 µM (inactive) | > 100 µM (inactive) | > 100 µM (inactive) | > 100 µM (inactive) | > 100 µM (inactive) | > 100 µM (inactive) | > 100 µM (inactive) | > 100 µM (inactive) | > 100 µM (inactive) | > 100 µM (inactive) | > 100 µM (inactive) | > 100 µM (inactive) | > 100 µM (inactive) | > 100 µM (inactive) | – | > 100 µM (inactive)
4 | COC1(OC)CC2C(=O)N(Cc3ccccc3)C1C(S(=O)(=O)c1ccccc1)C2S(=O)(=O)c1ccccc1 (configuration not stated) | – | > 100 µM (inactive) | 13.8 µM (inactive) | 15.2 µM (inactive) | 17.4 µM (inactive) | 16.4 µM (inactive) | 11.6 µM (inactive) | 14.1 µM (inactive) | 14.2 µM (inactive) | 3.87 µM (inactive) | > 100 µM (inactive) | 18.4 µM (inactive) | 14.8 µM (inactive) | 29.6 µM (inactive) | 18.2 µM (inactive) | 16.4 µM (inactive) | 19.3 µM (inactive) | 5.31 µM (inactive) | –
5 | Cc1cccc(N2C(=O)C(=O)C(c3nc4ccccc4s3)C(=O)C2=O)c1C | > 100 µM (inactive) | > 100 µM (inactive) | > 100 µM (inactive) | > 100 µM (inactive) | > 100 µM (inactive) | – | > 100 µM (inactive) | > 100 µM (inactive) | > 100 µM (inactive) | < 0.01 µM (active) | > 100 µM (inactive) | > 100 µM (inactive) | > 100 µM (inactive) | > 100 µM (inactive) | > 100 µM (inactive) | > 100 µM (inactive) | > 100 µM (inactive) | > 100 µM (inactive) | –
6 | CC1(C)CC(c2c[nH]c3ccccc23)=CC2=Nc3ccccc3C21O (configuration not stated) | > 100 µM (inactive) | 65.2 µM (inactive) | 48.8 µM (inactive) | > 100 µM (inactive) | > 100 µM (inactive) | > 100 µM (inactive) | 59.4 µM (inactive) | > 100 µM (inactive) | 5.94 µM (inactive) | > 100 µM (inactive) | > 100 µM (inactive) | 36.4 µM (inactive) | > 100 µM (inactive) | 35.5 µM (inactive) | > 100 µM (inactive) | 41.8 µM (inactive) | 15 µM (inactive) | – | –
7 | O=C(Nc1ccccc1)Oc1ccccc1C1CCCCC1 | – | 63.1 µM (inactive) | – | 28.8 µM (inactive) | 13.1 µM (inactive) | 26.8 µM (inactive) | 20.4 µM (inactive) | 36.3 µM (inactive) | 6.38 µM (inactive) | 9.71 µM (inactive) | 18.1 µM (inactive) | 13.5 µM (inactive) | 23.6 µM (inactive) | 20.9 µM (inactive) | 30.6 µM (inactive) | 21.9 µM (inactive) | 10.4 µM (inactive) | 14.8 µM (inactive) | –
8 | Cc1c(C(=O)C/C(=N/NC(=O)c2ccccc2O)C(=O)Nc2ccccc2C(C)C)[n+]([O-])c2ccccc2[n+]1[O-] | 0.0522 µM (active) | > 100 µM (inactive) | 30.8 µM (inactive) | > 100 µM (inactive) | – | 53.6 µM (inactive) | 43.6 µM (inactive) | 33.9 µM (inactive) | > 100 µM (inactive) | 3.01 µM (inactive) | > 100 µM (inactive) | 43 µM (inactive) | 31 µM (inactive) | 34.7 µM (inactive) | > 100 µM (inactive) | 27.7 µM (inactive) | – | – | –
9 | Cc1cccc(Nc2cn(CCOc3ccccc3)c(=O)n(CCOc3ccccc3)c2=O)c1 | – | > 100 µM (inactive) | > 100 µM (inactive) | – | > 100 µM (inactive) | > 100 µM (inactive) | – | > 100 µM (inactive) | – | – | > 100 µM (inactive) | > 100 µM (inactive) | > 100 µM (inactive) | > 100 µM (inactive) | > 100 µM (inactive) | > 100 µM (inactive) | 56.2 µM (inactive) | > 100 µM (inactive) | > 100 µM (inactive)
10 | CCCC1(N2C(=O)c3ccc4c5c(ccc(c35)C2=O)N(C2(CCC)CCCCC2)C4=O)CCCCC1 | > 100 µM (inactive) | > 100 µM (inactive) | > 100 µM (inactive) | > 100 µM (inactive) | > 100 µM (inactive) | > 100 µM (inactive) | > 100 µM (inactive) | > 100 µM (inactive) | – | – | > 100 µM (inactive) | > 100 µM (inactive) | > 100 µM (inactive) | > 100 µM (inactive) | > 100 µM (inactive) | > 100 µM (inactive) | > 100 µM (inactive) | – | –
11 | COc1cc([C@@H]2c3cc4c(cc3[C@@H](NC(=O)c3ccc(OC(C)=O)cc3)C3COC(=O)[C@@H]32)OCO4)cc(OC)c1O (some centres not stated) | 5.57 µM (inactive) | 2.16 µM (inactive) | 1.92 µM (inactive) | 10.7 µM (inactive) | 14.3 µM (inactive) | 2.66 µM (inactive) | 5.01 µM (inactive) | 2.01 µM (inactive) | 1.48 µM (inactive) | 0.153 µM (active) | 0.714 µM (active) | 1.99 µM (inactive) | 2.56 µM (inactive) | 0.275 µM (active) | 2.22 µM (inactive) | 2.61 µM (inactive) | 1.34 µM (inactive) | – | –
12 | CN(C)CC1CCCC/C1=N\OC(=O)c1ccccc1 (configuration not stated) | > 100 µM (inactive) | – | > 100 µM (inactive) | > 100 µM (inactive) | > 100 µM (inactive) | > 100 µM (inactive) | > 100 µM (inactive) | > 100 µM (inactive) | > 100 µM (inactive) | > 100 µM (inactive) | > 100 µM (inactive) | > 100 µM (inactive) | > 100 µM (inactive) | > 100 µM (inactive) | > 100 µM (inactive) | > 100 µM (inactive) | > 100 µM (inactive) | > 100 µM (inactive) | –
13 | N#Cc1ccc(Oc2cccc(Oc3ccccc3)c2)cc1C#N | 64 µM (inactive) | 28.5 µM (inactive) | > 10 µM (inactive) | > 10 µM (inactive) | 14.9 µM (inactive) | > 10 µM (inactive) | > 10 µM (inactive) | 48.2 µM (inactive) | 1.35 µM (inactive) | 31.9 µM (inactive) | > 10 µM (inactive) | 36.7 µM (inactive) | > 10 µM (inactive) | 42 µM (inactive) | 41.5 µM (inactive) | 44.3 µM (inactive) | > 10 µM (inactive) | > 10 µM (inactive) | –
14 | CCC1CNC(=O)CC1CC(=O)OC (configuration not stated) | > 100 µM (inactive) | > 100 µM (inactive) | > 100 µM (inactive) | > 100 µM (inactive) | > 100 µM (inactive) | > 100 µM (inactive) | – | > 100 µM (inactive) | > 100 µM (inactive) | > 100 µM (inactive) | > 100 µM (inactive) | > 100 µM (inactive) | > 100 µM (inactive) | > 100 µM (inactive) | – | > 100 µM (inactive) | > 100 µM (inactive) | > 100 µM (inactive) | –
15 | Cc1c(/C=C2\CC/C(=C\c3[nH]c(C(=O)OC(C)(C)C)c(C)c3C)C2=O)[nH]c(C(=O)OC(C)(C)C)c1C | > 100 µM (inactive) | > 100 µM (inactive) | > 100 µM (inactive) | > 100 µM (inactive) | > 100 µM (inactive) | > 100 µM (inactive) | > 100 µM (inactive) | > 100 µM (inactive) | 60.1 µM (inactive) | > 100 µM (inactive) | > 100 µM (inactive) | > 100 µM (inactive) | > 100 µM (inactive) | > 100 µM (inactive) | > 100 µM (inactive) | > 100 µM (inactive) | > 100 µM (inactive) | > 100 µM (inactive) | –
16 | NCC1Nc2ccccc2[C@@H](O)C1O (some centres not stated) | > 100 µM (inactive) | > 100 µM (inactive) | > 100 µM (inactive) | > 100 µM (inactive) | > 100 µM (inactive) | > 100 µM (inactive) | > 100 µM (inactive) | > 100 µM (inactive) | > 100 µM (inactive) | > 100 µM (inactive) | > 100 µM (inactive) | > 100 µM (inactive) | > 100 µM (inactive) | > 100 µM (inactive) | – | > 100 µM (inactive) | > 100 µM (inactive) | > 100 µM (inactive) | > 100 µM (inactive)
